Here are results for one molecule from patent EP0946580B1, “NOVEL ERYTHROMYCIN DERIVATIVES, METHOD OF PREPARATION AND APPLICATION AS MEDICINES” (Aventis Pharma S.A., priority 1996, dated 1998).

In brackets after ≈: the same amount, converted by molar mass.

What all share (assay type): cell-based
The test system of assay [1] is Staphylococcus aureus 011UC4. The assay is described as follows: Liquid medium dilution method (MIC). The note with it: 24 h incubation at 37°C, read-out: concentrations minimales inhibitrices (C.M.I.). The protocol:
(§1) Méthode des dilutions en milieu liquide
(§2) On a préparé une série de tubes dans lesquels on répartit une même quantité de milieu nutritif stérile. On distribue dans chaque tube des quantités croissantes du produit à étudier, puis chaque tube est ensemencé avec une souche bactérienne. Après incubation de vingt-quatre heures à l'étuve à 37°C, l'inhibition de la croissance est appréciée par transillumination de ce qui permet de déterminer les concentrations minimales inhibitrices (C.M.I.) exprimées en microgrammes/cm^3.

The subject of assay [2] is Staphylococcus epidermidis 012GO11I. The assay is described as follows: Liquid medium dilution method (MIC). The conditions noted are these: 24 h incubation at 37°C, read-out: concentrations minimales inhibitrices (C.M.I.). The protocol: as §1, §2
In assay [3] the test system is Streptococcus agalactiae groupe B 02B1HT1. As to the kind of experiment: Liquid medium dilution method (MIC). The conditions noted are these: 24 h incubation at 37°C, read-out: concentrations minimales inhibitrices (C.M.I.). The protocol:
as §1, §2

Assay [4] relates to Streptococcus agalactiae groupe B 02B1SJ1. The assay is described as follows: Liquid medium dilution method (MIC). The conditions noted are these: 24 h incubation at 37°C, read-out: concentrations minimales inhibitrices (C.M.I.). The protocol: as §1, §2
Assay [5] has as its system Streptococcus faecalis groupe D 02D2UC1. As to the kind of experiment: Liquid medium dilution method (MIC). The conditions noted are these: Enterococcus faecalis, 24 h incubation at 37°C, read-out: concentrations minimales inhibitrices (C.M.I.). The procedure: as §1, §2
For assay [6], the system named is Streptococcus faecium groupe D 02D3HT1. As to the kind of experiment: Liquid medium dilution method (MIC). The note with it: Enterococcus faecium, 24 h incubation at 37°C, read-out: concentrations minimales inhibitrices (C.M.I.). The procedure: as §1, §2
The test system of assay [7] is Streptococcus mitis 02mitCB1. As to the kind of experiment: Liquid medium dilution method (MIC). The conditions noted are these: 24 h incubation at 37°C, read-out: concentrations minimales inhibitrices (C.M.I.). The procedure: as §1, §2
Assay [8] deals with Streptococcus mitis 02mitGR16I. The assay is described as follows: Liquid medium dilution method (MIC). The note with it: 24 h incubation at 37°C, read-out: concentrations minimales inhibitrices (C.M.I.). The procedure: as §1, §2
In assay [9] the test system is Streptococcus pneumoniae 030ROIi. As to the kind of experiment: Liquid medium dilution method (MIC). The note with it: 24 h incubation at 37°C, read-out: concentrations minimales inhibitrices (C.M.I.). The procedure:
as §1, §2

The test system of assay [10] is Streptococcus pyogenes groupe A 02A1UC1. The assay is described as follows: Liquid medium dilution method (MIC). The note with it: 24 h incubation at 37°C, read-out: concentrations minimales inhibitrices (C.M.I.). The protocol: as §1, §2
Assay [11] concerns Streptococcus sp groupe G 02G0GR5. As to the kind of experiment: Liquid medium dilution method (MIC). The note with it: 24 h incubation at 37°C, read-out: concentrations minimales inhibitrices (C.M.I.). The protocol:
as §1, §2

The test system of assay [12] is Haemophilus Influenzae 351HT3. The assay is described as follows: Activity on gram-negative bacterial strains.
Assay [13] deals with Haemophilus Influenzae 351CB12. The assay is described as follows: Activity on gram-negative bacterial strains.
The test system of assay [14] is Haemophilus Influenzae 351CA1. As to the kind of experiment: Activity on gram-negative bacterial strains.
For assay [15], the system named is Haemophilus Influenzae 351GR6. As to the kind of experiment: Activity on gram-negative bacterial strains.

For the molecule `CCC1OC(=O)C(C)=CC(C)C(OC2OC(C)CC(N(C)C)C2O)C(C)(OC)CC(C)C(=O)C(C)C2N(CCCCn3cnc(-c4cccnc4)c3)C(=O)OC12C` [Ex. 1, 2,3-didéhydro-11,12-didéoxy-3-de[(2,6-didéoxy-3-C-méthyl-3-O-méthyl-alpha-L-ribo-hexopyranosyl)oxy]6-O-méthyl-12,11-[oxycarbonyl[[4-[4-(3-pyridinyl)-1H-imidazol-1-yl]butyl]imino]]-érythromycine], the MIC in [1] was 0.08 µg/mL (≈ 0.101 µM); in assay [2] it was 0.15 µg/mL (≈ 0.188 µM); in [3] it was at most 0.02 µg/mL; in assay [4], 0.08 µg/mL (≈ 0.101 µM); in assay [5], at most 0.02 µg/mL; in assay [6], at most 0.02 µg/mL. The MIC in assay [7], in assay [8], in [9], in [10] and in assay [11] was at most 0.02 µg/mL in each case. Besides, the “activité sur les souches bactériennes à gram^⊖” value in assay [12], in assay [13], in assay [14] and in [15] was “activité intéressante” in each case.
